Values of other authors, collected in patent US11406619B2, “Injectable formulations” (priority 2020, dated 2022).

Conditions: according to the Human Metabolome Database; cited from earlier work

## CN(C)CCc1c[nH]c2ccccc12 [Formulation D0, N,N-dimethyltryptamine]
  degradation in solution: degrades relatively quickly in solution
